Data on 5 compounds can be found in ChEMBL document CHEMBL5465560, “Selectivity Literature for EUbOPEN Chemogenomic Library” (2024).

Each structure is given as a SMILES string.

The target of assay [1] is Dual specificity mitogen-activated protein kinase kinase 1 (Homo sapiens, UniProt Q02750). In words: Selectivity interaction (Kinase panel (Z-LYTE Assay)) EUB0001632a MAP2K1. Conditions: at 10 µM.
Assay [2] addresses Serine/threonine-protein kinase PAK 1 (Homo sapiens) (UniProt Q13153). Briefly: Selectivity interaction (Kinase panel (Z-LYTE Assay)) EUB0001632a PAK1. The following applies: at 10 µM.
In assay [3] the target is T1, Serine/threonine-protein kinase TAO2 (Homo sapiens) (UniProt Q9UL54).
T1 sequence (whole entry): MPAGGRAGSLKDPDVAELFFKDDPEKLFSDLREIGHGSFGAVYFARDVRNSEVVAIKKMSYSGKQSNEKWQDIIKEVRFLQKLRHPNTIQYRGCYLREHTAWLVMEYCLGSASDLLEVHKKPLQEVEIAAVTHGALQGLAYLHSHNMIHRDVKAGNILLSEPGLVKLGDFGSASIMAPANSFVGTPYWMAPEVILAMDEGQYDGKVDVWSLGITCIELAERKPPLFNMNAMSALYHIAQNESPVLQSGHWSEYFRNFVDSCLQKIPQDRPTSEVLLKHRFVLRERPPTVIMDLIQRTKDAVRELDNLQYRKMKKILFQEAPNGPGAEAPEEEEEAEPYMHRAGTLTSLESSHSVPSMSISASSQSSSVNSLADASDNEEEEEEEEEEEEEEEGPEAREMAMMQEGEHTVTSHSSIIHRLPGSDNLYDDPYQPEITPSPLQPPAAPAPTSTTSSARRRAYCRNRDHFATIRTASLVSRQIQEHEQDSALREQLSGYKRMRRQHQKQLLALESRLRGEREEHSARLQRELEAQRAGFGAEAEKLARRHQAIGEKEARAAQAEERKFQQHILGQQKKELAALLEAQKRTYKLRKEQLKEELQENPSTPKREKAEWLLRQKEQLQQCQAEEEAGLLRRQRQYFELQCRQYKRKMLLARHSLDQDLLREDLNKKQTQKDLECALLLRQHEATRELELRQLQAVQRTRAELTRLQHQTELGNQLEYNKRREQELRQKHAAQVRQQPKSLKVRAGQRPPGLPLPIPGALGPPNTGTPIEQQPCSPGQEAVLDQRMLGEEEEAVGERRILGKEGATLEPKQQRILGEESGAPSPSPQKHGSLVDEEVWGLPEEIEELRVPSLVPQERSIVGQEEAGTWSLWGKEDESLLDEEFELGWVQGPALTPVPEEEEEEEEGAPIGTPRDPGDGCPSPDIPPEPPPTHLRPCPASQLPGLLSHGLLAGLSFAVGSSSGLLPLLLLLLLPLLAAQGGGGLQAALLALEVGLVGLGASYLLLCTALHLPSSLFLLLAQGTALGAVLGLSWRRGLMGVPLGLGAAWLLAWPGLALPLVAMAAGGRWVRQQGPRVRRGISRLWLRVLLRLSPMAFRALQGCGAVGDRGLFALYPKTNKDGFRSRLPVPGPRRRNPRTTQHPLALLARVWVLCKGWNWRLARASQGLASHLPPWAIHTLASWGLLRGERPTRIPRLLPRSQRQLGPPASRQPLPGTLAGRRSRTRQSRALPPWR
In words: Selectivity interaction (KinomeScan (DiscoverX)) EUB0000695a TAOK2. Conditions: at 100 nM.

Assay [4] has as its target Tyrosine-protein kinase SYK (Homo sapiens, UniProt P43405). In words: Selectivity interaction (KinomeScan (DiscoverX)) EUB0000695a SYK. The following applies: at 100 nM.
Assay [5] addresses T2, Cyclin-dependent kinase 4/cyclin D1 (Homo sapiens) (UniProt P11802+P24385). Briefly: (§1) Selectivity interaction (KinomeScan (DiscoverX)) EUB0000607a CDK4. Conditions: at 10 µM. The format is protein-complex assay.
Assay [6] has as its target T3, CDK4/Cyclin D3 (Homo sapiens) (UniProt P11802+P30281). Described as §1. The format is protein-complex assay. The following applies: at 10 µM.
In assay [7] the target is T2, Cyclin-dependent kinase 4/cyclin D1 (Homo sapiens). In words: (§2) Selectivity interaction (KinomeScan (DiscoverX)) EUB0000655a CDK4. The format is protein-complex assay. The following applies: at 10 µM.
Assay [8] deals with T3, CDK4/Cyclin D3 (Homo sapiens). The description is as §2. The format is protein-complex assay. Conditions: at 10 µM.
In assay [9] the target is T4, Serine/threonine-protein kinase LATS2 (Homo sapiens) (UniProt Q9NRM7).
T4 sequence (whole entry): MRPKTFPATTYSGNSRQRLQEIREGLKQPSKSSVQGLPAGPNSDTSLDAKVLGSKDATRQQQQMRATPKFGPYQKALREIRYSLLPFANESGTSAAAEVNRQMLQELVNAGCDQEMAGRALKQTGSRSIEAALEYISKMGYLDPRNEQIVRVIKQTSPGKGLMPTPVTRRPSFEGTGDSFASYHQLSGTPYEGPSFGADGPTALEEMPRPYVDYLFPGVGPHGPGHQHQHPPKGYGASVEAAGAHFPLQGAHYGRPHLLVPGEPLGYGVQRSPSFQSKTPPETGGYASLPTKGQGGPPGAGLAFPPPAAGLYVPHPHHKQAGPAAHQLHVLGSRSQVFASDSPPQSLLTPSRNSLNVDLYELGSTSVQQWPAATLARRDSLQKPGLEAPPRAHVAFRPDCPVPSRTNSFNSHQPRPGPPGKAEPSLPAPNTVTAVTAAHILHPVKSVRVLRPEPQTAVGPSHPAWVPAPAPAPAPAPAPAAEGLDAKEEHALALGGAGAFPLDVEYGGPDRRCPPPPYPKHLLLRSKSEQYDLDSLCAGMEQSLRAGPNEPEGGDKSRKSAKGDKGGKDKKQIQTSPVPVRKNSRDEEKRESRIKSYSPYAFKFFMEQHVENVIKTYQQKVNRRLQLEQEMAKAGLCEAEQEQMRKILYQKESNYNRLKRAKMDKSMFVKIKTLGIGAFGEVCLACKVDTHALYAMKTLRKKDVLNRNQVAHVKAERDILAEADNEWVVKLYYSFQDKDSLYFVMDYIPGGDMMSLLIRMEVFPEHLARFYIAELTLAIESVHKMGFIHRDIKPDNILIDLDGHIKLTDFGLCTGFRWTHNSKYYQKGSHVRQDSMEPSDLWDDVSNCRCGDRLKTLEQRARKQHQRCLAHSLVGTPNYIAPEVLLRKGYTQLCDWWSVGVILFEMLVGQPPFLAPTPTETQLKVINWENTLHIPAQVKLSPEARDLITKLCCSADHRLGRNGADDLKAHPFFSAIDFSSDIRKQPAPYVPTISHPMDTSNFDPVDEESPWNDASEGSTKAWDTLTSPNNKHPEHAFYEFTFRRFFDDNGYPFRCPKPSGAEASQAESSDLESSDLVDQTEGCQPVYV
Briefly: Selectivity interaction (KinomeScan (DiscoverX)) EUB0000229b LATS2. The following applies: at 10 µM.

Sequence of Dual specificity mitogen-activated protein kinase kinase 1 (Q02750 whole entry): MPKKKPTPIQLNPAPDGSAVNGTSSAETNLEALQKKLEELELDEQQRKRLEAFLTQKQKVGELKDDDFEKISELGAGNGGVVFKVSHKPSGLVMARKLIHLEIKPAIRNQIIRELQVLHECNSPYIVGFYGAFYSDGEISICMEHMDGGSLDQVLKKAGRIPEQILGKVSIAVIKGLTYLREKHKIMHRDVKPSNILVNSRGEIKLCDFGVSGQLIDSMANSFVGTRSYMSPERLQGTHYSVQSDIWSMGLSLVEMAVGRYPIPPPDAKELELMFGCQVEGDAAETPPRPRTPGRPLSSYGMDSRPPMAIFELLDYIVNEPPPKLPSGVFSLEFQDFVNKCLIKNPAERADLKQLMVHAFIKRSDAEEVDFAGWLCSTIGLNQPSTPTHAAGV
Sequence of Serine/threonine-protein kinase PAK 1 (Homo sapiens) (Q13153 whole entry): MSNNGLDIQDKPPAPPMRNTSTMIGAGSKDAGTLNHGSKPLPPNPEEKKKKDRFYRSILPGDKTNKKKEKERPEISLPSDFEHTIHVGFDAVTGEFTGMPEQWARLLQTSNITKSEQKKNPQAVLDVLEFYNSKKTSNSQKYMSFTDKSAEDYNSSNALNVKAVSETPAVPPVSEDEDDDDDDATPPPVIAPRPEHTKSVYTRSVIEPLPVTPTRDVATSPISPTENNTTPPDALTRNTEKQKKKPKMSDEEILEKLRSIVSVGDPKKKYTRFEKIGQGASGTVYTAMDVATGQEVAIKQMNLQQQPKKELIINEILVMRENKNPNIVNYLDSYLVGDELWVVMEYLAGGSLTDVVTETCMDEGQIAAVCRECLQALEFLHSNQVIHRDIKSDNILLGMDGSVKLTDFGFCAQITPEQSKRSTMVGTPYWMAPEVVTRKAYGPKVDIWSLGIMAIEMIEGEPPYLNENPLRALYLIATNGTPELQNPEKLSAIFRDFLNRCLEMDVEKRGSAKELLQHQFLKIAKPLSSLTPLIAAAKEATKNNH

Regarding `Cn1cc(-n2cnc3c(NCc4nc5cc(Cl)c(Cl)cc5[nH]4)nc(N4CCOCC4)nc32)cn1`, the % of control in [1] was -2.06%; in assay [2], -0.498%.

Regarding `Cc1cc(F)c(C(=O)Nc2cccc(-c3nncn3C(C)C)n2)cc1-n1cnc(C2CC2)c1`, the % of control amounted to 100% in [3] and 76% in assay [4].

As for `CNC(=O)Nc1ccc(-c2nc(N3CC4CCC(C3)O4)c3cnn(C4CCC5(CC4)OCCO5)c3n2)cc1`, the % of control in assay [5] was determined as 90%; in [6], 92%.

On to `CN(C)CCOc1ccc(-c2nc(-c3ccncc3)c(-c3ccc4c(c3)CC/C4=N\O)[nH]2)cc1`, for which the % of control in [7] stood at 58%; in assay [8] it was 86%.

The compound `COc1cc(N(C)c2ccnc3ccc(C(F)(F)F)cc23)cc(OC)c1OC` registered a % binding in assay [9] of 89%.
